Source: patent publication US20230053540A1, “TREATMENT OF LIVER INJURY” (Massachusetts Institute of Technology, priority 2019, published 2023)

Tested on: hepatocytes
Test: Seq-Well scRNA-Seq of hepatocytes after APAP overdose (signature scores, DEG vs untreated)
Type: in vivo, mouse
Details: APAP vs UT

For CC(=O)Nc1ccc(O)cc1 [APAP, acetaminophen], the “Ndufb4 logFC” value was −0.4537, the “Ndufb6 logFC” value was −0.5077 and the “Ndufb9 logFC” value was −0.5038. For the same compound, the “Ndufb11 logFC” value was −0.5097, the “Ndufs6 logFC” value was −0.5379 and the “Nedd4 logFC” value was 0.3774. For the same compound, the “Nit2 logFC” value was −0.4859, the “Nolc1 logFC” value was 0.4722 and the “Nop56 logFC” value was 0.2657. For the same compound, the “Nr5a2 logFC” value was 0.322, the “Nrp1 logFC” value was 0.3608 and the “Oaz1 logFC” value was −0.4185. For the same compound, the “Orm2 logFC” value was 0.2715, the “Pah logFC” value was −0.5221 and the “Park7 logFC” value was −0.2602. For the same compound, the “Pdcd4 logFC” value was 0.4882, the “Pdia4 logFC” value was 0.4882 and the “Pdia6 logFC” value was −0.39. The “Pemt logFC” value was −0.5512, the “Pfkfb2 logFC” value was 0.29 and the “Picalm logFC” value was 0.7545. The “Pik3c2a logFC” value was 0.3249, the “Plec logFC” value was 0.4675 and the “Plg logFC” value was 0.2617. For the same compound, the “Ppan logFC” value was 0.2724, the “Ppib logFC” value was −0.5897 and the “Ppm1k logFC” value was −0.5584. The “Ppp1r3b logFC” value was −0.4027, the “Ppp2r5a logFC” value was −0.2605 and the “Prg4 logFC” value was 0.4306. The “Prkd3 logFC” value was 0.3665, the “Pten logFC” value was 0.3559 and the “Ptms logFC” value was 0.2678. The “Ptpn1 logFC” value was 0.4163, the “Ptpn12 logFC” value was 0.3342 and the “Qdpr logFC” value was −0.5236. For the same compound, the “Qsox1 logFC” value was 0.3424, the “Rab1 logFC” value was 0.3526 and the “Rad54l2 logFC” value was 0.3887. For the same compound, the “Ranbp2 logFC” value was 0.5985, the “Rarres2 logFC” value was −0.5522 and the “Rdh16 logFC” value was 0.2692. The “Rgs2 logFC” value was 0.3957, the “Rnd3 logFC” value was 0.3655 and the “Rock2 logFC” value was 0.5941. For the same compound, the “Rora logFC” value was 0.6444, the “Rpl32 logFC” value was −0.5322 and the “Rpl36a1 logFC” value was −0.4755. For the same compound, the “Rplp1 logFC” value was −0.5047, the “Rpn1 logFC” value was 0.4124 and the “Rps2 logFC” value was −0.3879. The “Rrbp1 logFC” value was 0.3069, the “S100a1 logFC” value was −0.3762 and the “Saa4 logFC” value was −0.571. The “Sar1b logFC” value was −0.3176, the “Sat1 logFC” value was 0.6887 and the “Sc5d logFC” value was −0.5009. For the same compound, the “Sdad1 logFC” value was 0.3124, the “Sdc3 logFC” value was 0.3598 and the “Sdc4 logFC” value was 0.6196. The “Sdhd logFC” value was −0.3353, the “Sds logFC” value was −0.407 and the “Sec61a1 logFC” value was 0.3139. The “Selenbp1 logFC” value was −0.4937, the “Serp1 logFC” value was 0.3124 and the “Serpina3c logFC” value was −0.4725. The “Sfxn1 logFC” value was 0.3049, the “Slc2a2 logFC” value was −0.3123 and the “Slc3a1 logFC” value was 0.341. The “Slc10a2 logFC” value was 0.299, the “Slc20a1 logFC” value was 0.3572 and the “Slc37a4 logFC” value was 0.2683. The “Slc38a3 logFC” value was −0.4098, the “Slc38a4 logFC” value was 0.2637 and the “Slco1a1 logFC” value was −0.3628. For the same compound, the “Son logFC” value was 0.5429, the “Sorl1 logFC” value was 0.3067 and the “Sparcl1 logFC” value was −0.2536. For the same compound, the “Spcs3 logFC” value was 0.3942, the “Spred1 logFC” value was 0.3884 and the “Sqstm1 logFC” value was 0.7432. For the same compound, the “Ssr1 logFC” value was 0.3278, the “Ssr4 logFC” value was −0.5076 and the “St3gal1 logFC” value was 0.5287. For the same compound, the “Stard4 logFC” value was 0.3515, the “Stard10 logFC” value was −0.3383 and the “Stat3 logFC” value was 0.7154. The “Stk40 logFC” value was 0.5364, the “Tacc2 logFC” value was 0.3293 and the “Tatdn2 logFC” value was 0.3733. The “Tbc1d15 logFC” value was 0.4886, the “Tcerg1 logFC” value was 0.3575 and the “Thrsp logFC” value was −0.725. The “Tiparp logFC” value was 0.5456, the “Tjp2 logFC” value was 0.4115 and the “Tlcd2 logFC” value was −0.5945. For the same compound, the “Tm4sf4 logFC” value was 0.5126, the “Tmed7 logFC” value was 0.3868 and the “Tmem30a logFC” value was 0.3328. The “Tmem87b logFC” value was 0.4344, the “Tmem106b logFC” value was 0.2802 and the “Tmem256 logFC” value was −0.5185. The “Tnfrsf1a logFC” value was 0.5996, the “Tra2a logFC” value was 0.7123 and the “Tram1 logFC” value was 0.4111. The “Trip12 logFC” value was 0.3283, the “Tsc22d2 logFC” value was 0.3911 and the “Tsku logFC” value was 0.3676. For the same compound, the “Tsr1 logFC” value was 0.3603, the “Ttc39c logFC” value was −0.6363 and the “Tubb2a logFC” value was 0.7494. For the same compound, the “Ubxn4 logFC” value was 0.2503, the “Ucp2 logFC” value was 0.2612 and the “Ugdh logFC” value was 0.6331. For the same compound, the “Uggt1 logFC” value was 0.2845, the “Ugt2a3 logFC” value was −0.3334 and the “Uox logFC” value was −0.5531. For the same compound, the “Upb1 logFC” value was −0.4187, the “Upp2 logFC” value was −0.6903 and the “Uqcr10 logFC” value was −0.4519. The “Uqcr11 logFC” value was −0.6031, the “Uqcrh logFC” value was −0.4292 and the “Usmg5 logFC” value was −0.4305. The “Uso1 logFC” value was 0.3881, the “Usp4 logFC” value was 0.3247 and the “Usp9x logFC” value was 0.4076. The “Vkorc1 logFC” value was −0.4042, the “Vsig4 logFC” value was 0.4833 and the “Wfdc17 logFC” value was 0.4867. For the same compound, the “Xbp1 logFC” value was 0.6032, the “Ywhag logFC” value was 0.5824 and the “Zfp683 logFC” value was −0.4217. The “mmu-mir-6236 logFC” value was 0.7875, the “mt-Atp6 logFC” value was −0.5737 and the “mt-Nd6 logFC” value was −0.4779. For the same compound, the “mt-Tm logFC” value was 0.2847, the “mt-Tq logFC” value was 0.2879 and the “15-Sep logFC” value (composite DEG) was −0.4092. For the same compound, the “0610005C13Rik logFC” value (composite DEG) was −0.4251, the “0610011F06Rik logFC” value (composite DEG) was −0.3037 and the “1100001G20Rik logFC” value (composite DEG) was −0.8516. The “1110001J03Rik logFC” value (composite DEG) was −0.4328, the “1500011K16Rik logFC” value (composite DEG) was −0.3296 and the “1500017E21Rik logFC” value (composite DEG) was −0.461. For the same compound, the “1700017B05Rik logFC” value (composite DEG) was 0.3307, the “1810022K09Rik logFC” value (composite DEG) was −0.3001 and the “2010003K11Rik logFC” value (composite DEG) was 0.5884. For the same compound, the “2010107E04Rik logFC” value (composite DEG) was −0.3182, the “2410015M20Rik logFC” value (composite DEG) was −0.4021 and the “2810007J24Rik logFC” value (composite DEG) was −0.9143. The “AW112010 logFC” value (composite DEG) was −0.2981, the “Aadat logFC” value (composite DEG) was −0.3186 and the “Aass logFC” value (composite DEG) was 0.4775. The “Abca6 logFC” value (composite DEG) was 0.3328, the “Abcb4 logFC” value (composite DEG) was 0.4947 and the “Abcc3 logFC” value (composite DEG) was 0.3638. For the same compound, the “Abcd2 logFC” value (composite DEG) was 0.2851, the “Abcd3 logFC” value (composite DEG) was −0.2718 and the “Abhd14b logFC” value (composite DEG) was −0.3937. The “Acad11 logFC” value (composite DEG) was 0.3571, the “Acadl logFC” value (composite DEG) was 0.3162 and the “Acads logFC” value (composite DEG) was −0.3242. The “Acat1 logFC” value (composite DEG) was 0.3689, the “Acbd5 logFC” value (composite DEG) was −0.3952 and the “Acly logFC” value (composite DEG) was 0.3288. The “Aco2 logFC” value (composite DEG) was 0.2859, the “Acot1 logFC” value (composite DEG) was 0.3078 and the “Acot12 logFC” value (composite DEG) was 0.3078. For the same compound, the “Acsl1 logFC” value (composite DEG) was −0.3703, the “Acsm1 logFC” value (composite DEG) was −0.3692 and the “Actb logFC” value (composite DEG) was 1.06. For the same compound, the “Actn4 logFC” value (composite DEG) was 0.3124, the “Acy3 logFC” value (composite DEG) was −0.3137 and the “Adamts1 logFC” value (composite DEG) was 0.2826. The “Adck3 logFC” value (composite DEG) was −0.8761, the “Adh1 logFC” value (composite DEG) was −1.255 and the “Adtrp logFC” value (composite DEG) was −0.3664. For the same compound, the “Aff4 logFC” value (composite DEG) was 0.6163, the “Agpat2 logFC” value (composite DEG) was −0.2982 and the “Agpat6 logFC” value (composite DEG) was 0.3963. For the same compound, the “Agpat9 logFC” value (composite DEG) was 0.327, the “Agxt logFC” value (composite DEG) was −0.2584 and the “Ahcy logFC” value (composite DEG) was −0.563. For the same compound, the “Ak2 logFC” value (composite DEG) was −0.3451, the “Akap11 logFC” value (composite DEG) was 0.3464 and the “Akap13 logFC” value (composite DEG) was 0.4953. The “Akr1a1 logFC” value (composite DEG) was −0.3269, the “Akr1c19 logFC” value (composite DEG) was −0.2727 and the “Akr1d1 logFC” value (composite DEG) was 0.361. The “Alad logFC” value (composite DEG) was −0.4206, the “Aldh4a1 logFC” value (composite DEG) was −0.2907 and the “Aldh9a1 logFC” value (composite DEG) was 0.4159. The “Aldob logFC” value (composite DEG) was 0.3655, the “Amacr logFC” value (composite DEG) was −0.4136 and the “Amy1 logFC” value (composite DEG) was 0.4327. The “Anapc13 logFC” value (composite DEG) was −0.3642, the “Ankrd11 logFC” value (composite DEG) was 0.4156 and the “Anp32a logFC” value (composite DEG) was −0.317. The “Apc logFC” value (composite DEG) was 0.6067, the “Apcs logFC” value (composite DEG) was 0.7584 and the “Aplp2 logFC” value (composite DEG) was 0.3394. The “Apoa4 logFC” value (composite DEG) was 1.368.
